Test results from US20100062131A1, “FLAVAN-3-OL CONTAINING FOODSTUFFS” (CONOPCO, INC., D/B/A UNILEVER, priority 2008, published 2010).

Molecular target: T1, human bitter receptor TAS2R39 (Homo sapiens, UniProt P59534)
T1 construct: expressed in transfected cells; host or cells: HEK293 (tetracycline/doxycycline-inducible expression; blasticidin, geneticin and hygromycin selection)
T1 sequence (P59534 1-338): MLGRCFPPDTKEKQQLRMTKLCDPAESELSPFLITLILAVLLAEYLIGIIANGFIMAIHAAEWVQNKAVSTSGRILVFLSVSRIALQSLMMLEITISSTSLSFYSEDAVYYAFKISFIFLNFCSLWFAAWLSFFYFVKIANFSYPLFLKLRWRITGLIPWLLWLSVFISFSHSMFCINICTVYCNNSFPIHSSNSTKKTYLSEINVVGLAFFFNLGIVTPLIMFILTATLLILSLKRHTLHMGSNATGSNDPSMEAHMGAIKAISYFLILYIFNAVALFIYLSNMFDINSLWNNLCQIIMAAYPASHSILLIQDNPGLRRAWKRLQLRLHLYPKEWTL
Assay: Inhibition of ECG stimulation of TAS2R39, intracellular calcium (Fluo4-AM fluorescence) assay
Format: cell-based
Settings: HEK293 cells expressing TAS2R39; test solution 0.5 mM ECG and 10 mM test compound in Tyrodes buffer; percentage reduction of ΔF vs ECG alone
Text: Activation of the bitter receptor TAS2R39 causes the release of calcium from the endoplasmic reticulum of those cells containing the receptor. Therefore, changes in calcium levels within cells expressing TAS2R39 serves as a proxy marker for the activity of the receptor. An assay was used to assess the stimulation of TAS2R39 by the flavan-3-ol epicatechin gallate (ECG) and to assess the inhibition of this stimulation of TAS2R39 through the use of various compounds as follows:
HEK293 cells expressing the human bitter receptor TAS2R39 and a G-protein that allows coupling to a calcium readout system were maintained in Dulbecco's Modified Eagle's Medium (DMEM) containing DMEM and 10% tetracycline-free fetal bovine serum (Cambrex) supplemented with blasticidin (5 μg/ml) geneticin (400 μg/ml) and hygromycin (100 μg/ml). Cells were grown and maintained at 37° C./5% CO2.
Cells were cultured in a 75 cm^2 flask, harvested by trypsinisation and resuspended in DMEM medium. 100 μl of cells per well were added to a poly-L-lysine coated μClear 96-well plate, and incubated overnight. Expression of the TAS2R39 gene was then induced by the addition of 100 μl DMEM medium containing 0.5 μg/ml doxycyclin. After another 24-30 hrs the medium was removed and the cells were loaded for 1 hour with 50 μl Tyrodes buffer (140 mM NaCl, 5 mM KCl, 10 mM glucose, 1 mM CaCl2.2H2O, 1 mM MgCl2.6H2O, 20 mM HEPES pH 7.4 (Sigma P8761)) containing 2.5 μM of the fluorescent marker of calcium, Fluo4-AM, followed by a 1-hr incubation at 37° C. The cells were then washed with Tyrodes buffer and finally taken up in 100 μl, Tyrodes buffer.
Test solutions containing 0.5 mM ECG and 10 mM of the test compounds, dissolved in Tyrodes buffer, were prepared and 100 μl of each test solution was added to the wells of the 96-well plate containing the cells. A comparative solution containing only 0.5 mM ECG dissolved in Tyrodes buffer was also prepared and 100 μl was added to a well of the 96-well plate containing the cells.
Intracellular calcium levels were monitored using a Flexstation II 384. The 96-well plate was loaded onto the Flexstation II 384 and fluorescence measurements were carried out at 37° C. at an excitation wavelength of 485 nm and an emission wavelength of 520 nm. Activity of TA52R39 was measured as the change in fluorescence (ΔF) which was calculated by subtracting the […] measured before addition of the test or comparative solution.
Inhibition of TAS2R39 activity was measured as the percentage reduction of ΔF in the presence of ECG alone, compared to ΔF in the presence of ECG plus a test compound. 3,4,5-trihydroxybenzoic acid (gallic acid) was included in the selection of the test compounds.

Compound | % inhibition of TAS2R39 [%]
O=C(O)Cc1ccc(O)c(O)c1 [3,4-dihydroxyphenylacetic acid, reference compound] | 15
O=C(O)CCc1ccc(O)cc1 [3-(4-hydroxyphenyl) propanoic acid, reference compound] | 25
COc1cc(/C=C/C(=O)O)ccc1O [3-methoxy-4-hydroxycinnamic acid, 3-methoxy-4-hydroxycinnamic acid] | 65
O=C(O)Cc1ccc(O)cc1 [4-hydroxyphenylacetic acid, reference compound] | 20
COc1ccc(CC(=O)O)cc1 [4-methoxyphenylacetic acid, reference compound] | 15
COc1ccccc1/C=C/C(=O)O [2-methoxycinnamic acid, reference compound] | 0
COc1ccc(CCC(=O)O)cc1OC [3-(3,4-dimethoxyphenyl) propanoic acid, 3-(3,4-dimethoxyphenyl)propanoic acid] | 35
COc1cc(/C=C/C(=O)O)cc(OC)c1O [4-hydroxy-3,5-dimethoxycinnamic acid, 4-hydroxy-3,5-dimethoxycinnamic acid] | 65
COc1cc(CCC(=O)O)ccc1O [3-(3-methoxy-4-hydroxyphenyl)propanoic acid] | 35
COc1ccccc1C(=O)O [2-methoxybenzoic acid, reference compound] | 10
O=C(O)c1ccc(O)cc1 [4-hydroxybenzoic acid, reference compound] | 25
COc1ccc(C(=O)O)cc1 [4-methoxybenzoic acid, reference compound] | 15
COc1cc(CC(=O)O)cc(OC)c1OC [3,4,5-trimethoxyphenylacetic acid, reference compound] | 25
COc1ccc(CCC(=O)O)cc1 [3-(4-methoxyphenyl) propanoic acid, 3-(4-methoxyphenyl)propanoic acid] | 40
COc1cccc(/C=C/C(=O)O)c1 [3-methoxycinnamic acid, reference compound] | 0
COc1cc(/C=C/C(=O)O)cc(OC)c1 [3,5-dimethoxycinnamic acid, reference compound] | 20
O=C(O)Cc1ccccc1 [Phenylacetic acid, reference compound] | 5
O=C(O)CCCc1ccccc1 [4-phenylbutanoic acid] | 40

Compound | % inhibition of TAS2R39 [%]
O=C(O)c1ccc(O)c(O)c1 [3,4-dihydroxybenzoic acid, reference compound] | 15
O=C(O)CCc1ccccc1 [3-phenylpropanoic acid, reference compound] | 15
O=C(O)/C=C/c1ccc(O)c(O)c1 [3,4-dihydroxycinnamic acid] | 30
COc1cc(C(=O)O)cc(OC)c1OC [3,4,5-trimethoxybenzoic acid, reference compound] | 20
COc1cccc(C(=O)O)c1 [3-methoxybenzoic add, reference compound] | 5
O=C(O)c1cc(O)c(O)c(O)c1 [3,4,5-trihydroxybenzoic acid, reference compound] | 25
N[C@@H](Cc1ccccc1)C(=O)O [Phenylalamine, reference compound] | 0
COc1ccc(/C=C/C(=O)O)cc1 [4-methoxycinnamic acid] | 30
O=C(O)CCc1ccc(O)c(O)c1 [3-(3,4-dihydroxyphenyl) propanoic acid, 3-(3,4-dihydroxyphenyl)propanoic acid] | 30
COc1cc(CCC(=O)O)cc(OC)c1OC [3-(3,4,5-trimethoxyphenyl)propanoic acid] | 35
O=C(O)/C=C/c1ccc(O)cc1 [4-hydroxycinnamic acid] | 40
Benzoic acid [reference compound] | 20
COc1cc(/C=C/C(=O)O)cc(OC)c1OC [3,4,5-trimethoxycinnamic acid, 3,4,5-trimethoxycinnamic acid] | 70
COc1cccc(C(=O)O)c1O [2-hydroxy-3-methoxybenzoic acid, reference compound] | 25
COc1ccc(/C=C/C(=O)O)c(OC)c1 [2,4-dimethoxycinnamic acid] | 40
COc1ccc(C(=O)O)cc1OC [3,4-dimethoxybenzoic acid, reference compound] | 10
O=C(O)/C=C/c1ccccc1 [3-phenyl propenoic acid (Cinnamic acid), 3-phenyl propenoic acid] | 40

Same assay, conditions: comparison of % inhibition in Table 1 with gallic acid

Compound | effectiveness as inhibitor of TAS2R39 compared with gallic acid
COc1cc(/C=C/C(=O)O)ccc1O [3-methoxy-4-hydroxycinnamic acid, 3-methoxy-4-hydroxycinnamic acid] | more effective inhibitors of TAS2R39 than gallic acid
COc1ccc(/C=C/C(=O)O)cc1OC [3,4-dimethoxycinnamic acid] | more effective inhibitors of TAS2R39 than gallic acid
COc1ccc(CCC(=O)O)cc1OC [3-(3,4-dimethoxyphenyl) propanoic acid, 3-(3,4-dimethoxyphenyl)propanoic acid] | more effective inhibitors of TAS2R39 than gallic acid
COc1cc(/C=C/C(=O)O)cc(OC)c1O [4-hydroxy-3,5-dimethoxycinnamic acid, 4-hydroxy-3,5-dimethoxycinnamic acid] | more effective inhibitors of TAS2R39 than gallic acid
COc1cc(CCC(=O)O)ccc1O [3-(3-methoxy-4-hydroxyphenyl)propanoic acid] | more effective inhibitors of TAS2R39 than gallic acid
COc1ccc(CCC(=O)O)cc1 [3-(4-methoxyphenyl) propanoic acid, 3-(4-methoxyphenyl)propanoic acid] | more effective inhibitors of TAS2R39 than gallic acid
O=C(O)CCCc1ccccc1 [4-phenylbutanoic acid] | more effective inhibitors of TAS2R39 than gallic acid
O=C(O)/C=C/c1ccc(O)c(O)c1 [3,4-dihydroxycinnamic acid] | more effective inhibitors of TAS2R39 than gallic acid
COc1ccc(/C=C/C(=O)O)cc1 [4-methoxycinnamic acid] | more effective inhibitors of TAS2R39 than gallic acid
O=C(O)CCc1ccc(O)c(O)c1 [3-(3,4-dihydroxyphenyl) propanoic acid, 3-(3,4-dihydroxyphenyl)propanoic acid] | more effective inhibitors of TAS2R39 than gallic acid
COc1cc(CCC(=O)O)cc(OC)c1OC [3-(3,4,5-trimethoxyphenyl)propanoic acid] | more effective inhibitors of TAS2R39 than gallic acid
O=C(O)/C=C/c1ccc(O)cc1 [4-hydroxycinnamic acid] | more effective inhibitors of TAS2R39 than gallic acid
COc1cc(/C=C/C(=O)O)cc(OC)c1OC [3,4,5-trimethoxycinnamic acid, 3,4,5-trimethoxycinnamic acid] | more effective inhibitors of TAS2R39 than gallic acid
COc1ccc(/C=C/C(=O)O)c(OC)c1 [2,4-dimethoxycinnamic acid] | more effective inhibitors of TAS2R39 than gallic acid
O=C(O)/C=C/c1ccccc1 [3-phenyl propenoic acid (Cinnamic acid), 3-phenyl propenoic acid] | more effective inhibitors of TAS2R39 than gallic acid
